Laboratory results: patent publication US9868720B2 (Genentech, Inc., priority 2013, dated 2018)

What follows are compounds tested against DLK kinase (N-terminally GST-tagged DLK, catalytic domain amino acid 1-520) (Homo sapiens (Human), UniProt Q12852) (assay: DLK TR-FRET assay). Conditions: 30 μM ATP, MKK4 K131M substrate, read-out: DLK HTRF (Ki).
Type: biochemical
Procedure, shortened: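 Phosphorylation of HIS-tagged MKK4 K131M (40 nM) by GST-DLK aa 1-520 (5 nM) at 30 μM ATP, pH 7.5, run 60 min at ambient temperature. Compound series started at 20 uM, diluted 1:3. Phospho-MKK4 detected by TR-FRET (Eu cryptate/D2 antibodies, 3 h, EDTA-containing buffer).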

Sequence of DLK kinase (N-terminally GST-tagged DLK, catalytic domain amino acid 1-520) (Q12852 1-520): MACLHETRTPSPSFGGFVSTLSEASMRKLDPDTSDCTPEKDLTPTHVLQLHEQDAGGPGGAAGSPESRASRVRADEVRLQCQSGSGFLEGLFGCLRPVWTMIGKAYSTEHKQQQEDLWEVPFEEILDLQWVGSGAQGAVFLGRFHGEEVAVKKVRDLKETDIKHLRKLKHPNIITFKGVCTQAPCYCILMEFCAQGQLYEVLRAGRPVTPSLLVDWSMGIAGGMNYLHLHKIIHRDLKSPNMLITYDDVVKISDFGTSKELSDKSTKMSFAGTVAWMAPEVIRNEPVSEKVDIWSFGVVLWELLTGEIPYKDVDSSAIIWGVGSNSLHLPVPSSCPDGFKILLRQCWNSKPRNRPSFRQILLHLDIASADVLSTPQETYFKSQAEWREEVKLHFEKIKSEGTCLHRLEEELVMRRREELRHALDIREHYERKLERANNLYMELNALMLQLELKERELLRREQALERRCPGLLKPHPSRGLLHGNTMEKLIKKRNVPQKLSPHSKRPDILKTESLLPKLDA

| Structure (SMILES) | Ki [nM] |
| --- | --- |
| CC1CCCN1c1nc(Nc2cc(C(F)(F)F)ccn2)cc(C2CCN(C(=O)Cn3ccnc3)C2)n1 (stereo not shown) [Example 402, 2-Imidazol-1-yl-1-{3-[2-(2-methyl-pyrrolidin-1-yl)-6-(4-trifluoromethyl-pyridin-2-ylamino)-pyrimidin-4-yl]-pyrrolidin-1-yl}-ethanone] | 1.59 |
| FC1(F)CCN(c2nc(Nc3cc(C(F)(F)F)ccn3)cc(C3CCN(Cc4cn[nH]c4)C3)n2)C1 (stereo not shown) [Example 404, {2-(3,3-Difluoro-pyrrolidin-1-yl)-6-[1-(1H-pyrazol-4-ylmethyl)-pyrrolidin-3-yl]-pyrimidin-4-yl}-(4-trifluoromethyl-pyridin-2-yl)-amine] | 4.92 |
| FC(F)(F)c1ccnc(Nc2cc(C3CCCN(C4COC4)C3)nc(C3CCC3)n2)c1 (stereo not shown) [Example 407, [2-Cyclobutyl-6-(1-oxetan-3-yl-piperidin-3-yl)-pyrimidin-4-yl]-(4-trifluoro-methyl-pyridin-2-yl)-amine] | 26 |
| CC(C)c1nc(Nc2cc(C(F)(F)F)ccn2)cc(C2CCNC(=O)C2)n1 (stereo not shown) [Example 408, 4-[2-Isopropyl-6-(4-trifluoro-methyl-pyridin-2-ylamino)-pyrimidin-4-yl]-piperidin-2-one] | 97.8 |
| CC1CCCN1c1nc(Nc2cc(C(F)(F)F)ccn2)cc(C2CCNC(=O)C2)n1 (stereo not shown) [Example 412, 4-[2-(2-Methyl-pyrrolidin-1-yl)-6-(4-trifluoromethyl-pyridin-2-ylamino)-pyrimidin-4-yl]-piperidin-2-one] | 47.5 |
| Cn1cc(-c2nc(Nc3cc(C(F)(F)F)ccn3)cc(C3CCN(CC4CCOCC4)C3)n2)cn1 (stereo not shown) [Example 423, {2-(1-Methyl-1H-pyrazol-4-yl)-6-[1-(tetrahydro-pyran-4-ylmethyl)-pyrrolidin-3-yl]-pyrimidin-4-yl}-(4-trifluoromethyl-pyridin-2-yl)-amine] | 5.21 |
| CC(=O)N1CCC(c2cc(Nc3cc(C(F)(F)F)ccn3)nc(-c3cnn(C)c3)n2)CC1 [Example 424, 1-{4-[2-(1-Methyl-1H-pyrazol-4-yl)-6-(4-trifluoromethyl-pyridin-2-ylamino)-pyrimidin-4-yl]-piperidin-1-yl}-ethanone] | 12.4 |
| COc1cc(C)ccc1C(=O)N1CCCC(c2cc(Nc3cc(C)ccn3)nc(N3CCCC3C)n2)C1 (stereo not shown) [Example 425, (2-Methoxy-4-methyl-phenyl)-{3-[6-(4-methyl-pyridin-2-ylamino)-2-(2-methyl-pyrrolidin-1-yl)-pyrimidin-4-yl]-piperidin-1-yl}-methanone] | 0.17 |
| COc1cc(C)ccc1C(=O)N1CCCC(c2cc(Nc3cc(C)ccn3)nc(N3CCC(F)(F)C3)n2)C1 (stereo not shown) [Example 426, {3-[2-(3,3-Difluoro-pyrrolidin-1-yl)-6-(4-methyl-pyridin-2-ylamino)-pyrimidin-4-yl]-piperidin-1-yl}-(2-methoxy-4-methyl-phenyl)-methanone] | 0.5 |
| FC1(F)CCN(c2nc(Nc3cc(Cl)ccn3)cc(C3CCN(C4COC4)CC3)n2)C1 [Example 427, N-(4-chloropyridin-2-yl)-2-(3,3-difluoropyrrolidin-1-yl)-6-(1-(oxetan-3-yl)piperidin-4-yl)pyrimidin-4-amine] | 16 |

The compounds below were run on phosphorylation of JNK in HEK293 cells stably transfected with doxycycline-inducible Flag-tagged full length DLK (assay: pJNK Cell based assay). Conditions: Homo sapiens; HEK293 cells with doxycycline-induced DLK, 5.5 hours compound treatment, pJNK mean intensity by imaging; read-out: p-JNK 293 IC50.
Experimental: pJNK Cell based assay:HEK293 cells stably transfected with doxycycline-inducible N-terminally Flag-tagged full length DLK were plated at density of 7500 cells/well (40 μL) in 384-well Greiner bio-one μclear plate coated with Poly-D-Lysine. The cells were incubated at 37° C. in DMEM (Dulbecco's Modified Eagle Medium) media containing 10% FBS and 2 mM L-Glutamine for 20-24 hours. 5 μL of 60 μM doxycycline was added to the cells to initiate DLK expression for 20 hours at 37° C. No doxycycline was added for the negative control wells. 5 μL of compounds of formula I in various concentrations in DMEM were added to the cells and the compound treated cell culture was incubated at 37° C. for 5.5 hours prior to fixation with addition of 50 μL 4% paraformaldehyde. The wells were washed with 40 μL PBS wash twice followed by permeabilization with 0.1% Triton X-100. The cells were washed with 40 μL PBS wash twice again prior to incubation in 20 μL SuperBlock (Thermo Scientific) for 1 hour at ambient temperature. The primary antibodies (1:3000 mouse anti-Flag and 1:1000 rabbit anti-pJNK in SuperBlock) were incubated with the fixed cells overnight at 4° C. The cells were washed with 40 μL PBS twice before the addition of secondary antibodies (Anti-mouse labeled with AlexaFluor555 and anti-rabbit labeled with AlexaFluor488 in 1:2000 dilution in SuperBlock). The secondary antibodies were incubated at ambient temperature for 2 hours and were protected from light. The cells were washed with 40 μL PBS before the addition of 20 μL Hoechst 33342 (1:5000 in PBS). The plate was sealed and stored at 4° C. in the dark until imaging analyses on Opera High Content Screening System (Evotec). Three data points were reported: pJNK (mean intensity inside the search stencil), DLK (mean intensity of the 1% brightest pixels inside the search stencil) and nuclear area.

| Structure (SMILES) | IC50 [nM] |
| --- | --- |
| CC(=O)N1CCC(C#N)(c2cc(Nc3cc(C(F)(F)F)ccn3)nc(N3CCC(F)(F)C3)n2)CC1 [1-Acetyl-4-[2-(3,3-difluoro-pyrrolidin-1-yl)-6-(4-trifluoromethyl-pyridin-2-ylamino)-pyrimidin-4-yl]-piperidine-4-carbonitrile] | 605 |
| N#CC1(C(=O)N2CCC(c3cc(Nc4cc(C(F)(F)F)ccn4)nc(N4CCC(F)(F)C4)n3)C2)CC1 (stereo not shown) [1-{3-[2-(3,3-Difluoro-pyrrolidin-1-yl)-6-(4-trifluoromethyl-pyridin-2-ylamino)-pyrimidin-4-yl]-pyrrolidine-1-carbonyl}-cyclopropanecarbonitrile] | 584 |
| CN(CCO)c1nc(Nc2cc(C(F)(F)F)ccn2)cc(C2CCNC2)n1 (stereo not shown) [2-{Methyl-[4-pyrrolidin-3-yl-6-(4-trifluoromethyl-pyridin-2-ylamino)-pyrimidin-2-yl]-amino}-ethanol] | 193 |
| FC(F)(F)c1ccnc(Nc2cc(C3CCCNC3)nc(-c3ccccc3)n2)c1 (stereo not shown) [(2-Phenyl-6-piperidin-3-yl-pyrimidin-4-yl)-(4-trifluoromethyl-pyridin-2-yl)-amine] | 1000 |
| FC1(F)CCN(c2nc(Nc3cc(Cl)ccn3)cc(C3CCNCC3)n2)C1 [(4-Chloro-pyridin-2-yl)-[2-(3,3-difluoro-pyrrolidin-1-yl)-6-piperidin-4-yl-pyrimidin-4-yl]-amine] | 113 |
| FC1(F)CCN(c2nc(Nc3cc(C4CCC4)ccn3)cc(C3CCNCC3)n2)C1 [(4-Cyclobutyl-pyridin-2-yl)-[2-(3,3-difluoro-pyrrolidin-1-yl)-6-piperidin-4-yl-pyrimidin-4-yl]-amine] | 200 |
| FC(F)(F)c1ccnc(Nc2cc(C3CCOCC3)nc(N3CC4CC3CO4)n2)c1 (stereo not shown) [[2-(2-Oxa-5-aza-bicyclo[2.2.1]hept-5-yl)-6-(tetrahydro-pyran-4-yl)-pyrimidin-4-yl]-(4-trifluoromethyl-pyridin-2-yl)-amine] | 268 |
| FC(F)(F)c1ccnc(Nc2cc(C3CCNCC3)nc(N3CC4CC3CO4)n2)c1 (stereo not shown) [[2-(2-Oxa-5-aza-bicyclo[2.2.1]hept-5-yl)-6-piperidin-4-yl-pyrimidin-4-yl]-(4-trifluoromethyl-pyridin-2-yl)-amine] | 389 |
| FC(F)(F)c1ccnc(Nc2cc(C3CCOCC3)nc(N3CCc4nc[nH]c4C3)n2)c1 [[2-(3,4,6,7-Tetrahydro-imidazo[4,5-c]pyridin-5-yl)-6-(tetrahydro-pyran-4-yl)-pyrimidin-4-yl]-(4-trifluoromethyl-pyridin-2-yl)-amine] | 240 |
| Cc1nccc(C2CCN(c3nc(Nc4cc(C(F)(F)F)ccn4)cc(C4CCOCC4)n3)C2)n1 (stereo not shown) [[2-[3-(2-Methyl-pyrimidin-4-yl)-pyrrolidin-1-yl]-6-(tetrahydro-pyran-4-yl)-pyrimidin-4-yl]-(4-trifluoromethyl-pyridin-2-yl)-amine] | 227 |
| Cc1c[nH]c(CN2CCC(c3cc(Nc4cc(C(F)(F)F)ccn4)nc(N4CC(F)(F)C4)n3)C2)n1 (stereo not shown) [{2-(3,3-Difluoro-azetidin-1-yl)-6-[1-(4-methyl-1H-imidazol-2-ylmethyl)-pyrrolidin-3-yl]-pyrimidin-4-yl}-(4-trifluoromethyl-pyridin-2-yl)-amine] | 418 |
| Cc1ccnc(Nc2cc(C3CCCN(C(=O)c4ccccc4)C3)nc(N3CCCC3)n2)c1 (stereo not shown) [{3-[6-(4-Methyl-pyridin-2-ylamino)-2-pyrrolidin-1-yl-pyrimidin-4-yl]-piperidin-1-yl}-phenyl-methanone] | 77.9 |
